Laboratory results as given in patent US8501239B2 (priority 2005, dated 2013).
Where two headings read alike, the source gives them in different places.

Legend:
[1] = test system: rat brain; details: model of focal ischemia-reperfusion injury in the rat brain; cited from earlier work
[2] = test system: humans; details: cited from earlier work
[3] = test system: Adult Sprague-Dawley rats; format: in vivo, rat
[4] = test system: contusion SCI; test: Tissue sparing following moderate contusion SCI, T10 lesion epicenter; format: in vivo; details: 5 mg/kg, 15 mins post-injury, 48 hours after SCI, p<0.05
Description: Bar graphs representing the extent of tissue sparing measured through cross-sections of the T10 segment injury epicenters 48 hours after a moderate (150 kydn) contusion SCI. […] Bars represent group means, SEM (n=5-6/group). Using an unpaired t-test, * indicates p<0.05 compared to vehicle-treated groups.

Row | SMILES | reduction of infarct volume [1] | weight loss as a function of dose ([2]; FIG. 1 left panel, regardless of diet or lifestyle) | metabolism as a function of dosage ([2]; FIG. 1 right panel) | tissue sparing compared to vehicle-treated animals ([3]; rat, in vivo) | cross-sectional area of tissue preservation at lesion epicenter ([4]; vs vehicle (DMSO)) | percentage of tissue sparing at the lesion epicenters ([4]; vs vehicle controls) | tissue sparing compared to vehicle-treated animals ([3]; TBI rats, dosed 5 min post-injury (5 mg/kg 2,4-DNP, 2.5 mg/kg FCCP, 6.2 mg/kg), 15 days post-injury, p<0.01)
1 | O=[N+]([O-])c1ccc(O)c([N+](=O)[O-])c1 [2,4-DNP, 2,4-dinitrophenol] | approximately 40% | very linear increase in weigh loss | linear increase in metabolism | significantly increased tissue sparing | significantly greater cross-sectional area of tissue preservation | significantly higher percentage of tissue sparing | 
2 | N#CC(C#N)=NNc1ccc(OC(F)(F)F)cc1 [FCCP, carbonyl cyanide 4-trifluoromethoxy phenylhydrazone] |  |  |  |  |  |  | significantly increased tissue sparing
